Measurements taken from patent publication US12352767B2, “Method of treating cognitive decline associated with neurological diseases based on a decrease in FLT4 expression or activity” (University of Virginia Patent Foundation, priority 2018, dated 2025).

Experiments:
[1] = test system: brain hippocampus and cortex; experiment: T1-weighted MRI of brain influx of i.c.m. gadolinium, Lymph4D analysis; assay type: in vivo, mice
From the text: Measurement of gadolinium influx rate and modeling of tracer advection-diffusion within the brain were achieved using Lymph4D, a software developed in-house and available for revision purposes on the following link on the world wide web: viva-lab.ece.virginia.edu/lymph4d. To allow for a direct comparison between the different conditions, the MRI stacks Si(x, y, z, t) of the imaged mice (4 vehicle and 4 Visudyne) were aligned to a Visudyne stack V1(x, y, z, t), chosen as reference. Before proceeding with the automated registration in the (x, y) plane, the stacks were manually aligned along the z (sagittal) direction, to ensure the correspondence between (x, y) (transversal plane) slices, and cropped both in the z and t (time) direction, to ensure that each set of coordinates (x, y, z, t) contained meaningful data. To optimize the slice alignment in the (x, y) plane, scale pyramids (Adelson, E. H., Anderson, C. H., Bergen, J. R., Burt, P. J. & Ogden, J. M. Pyramid methods in image processing. RCA engineer 29, 33-41, (1984).) (3 levels deep) were computed for both the image to be registered and the reference. Starting from the coarser scale, the optimal non-reflective transformation matrix (restricted to translation, rotation, and scaling) was evaluated by using an iterative process based on the steep gradient descent method with a mean square error (MSE) cost function. After reaching algorithm convergence at the largest scale, or the maximum number of allowed iterations, the alignment was refined using progressively finer scales. A linear interpolation mapping was then used to reconstruct the image registered using the optimized transformation matrix. The following alignment strategy was used. Given a stack Si to be aligned to V1, for every slice zj(t)=Si(x, y, zj, t) at a given location in the sagittal direction (z=zj), the optimal transformation matrix was evaluated at every available time (t) and the quality (MSE) of the resulting alignment measured. […] Also, after the alignment, contrast measurement, providing the difference between the maximum and the minimum values observed along the temporal direction during the experiment duration (variability in tracer signal intensity over time), was evaluated for a given (x, y, z) location in the S; stack using: […]
The model was discretized using the forward-time central-space (FTCS) finite difference method (Ferziger, J. H. & Perić, M. Finite Difference Methods. In: Computational Methods for Fluid Dynamics. 3rd edition, 39-69, Springer, Berlin, Heidelberg, (2002).) after the following assumptions. The concentration (x, t) was considered proportional to the measured MRI signal intensity. […]

mice = experiment: Morris water maze test; assay type: in vivo; conditions: Visudyne/photoconversion twice, adult mice
Experimental: The Morris water maze test was performed as described before^53, but with modifications. Mice were transported to the behavior room to habituate at least 30 min before starting the test. The MWM test consisted of 4 days of acquisition, 1 day of probe trial and 2 days of reversal. In the acquisition, mice performed four trials per day, for 4 consecutive days, to find a hidden 10-cm diameter platform located 1 cm below the water surface in a pool 1 m in diameter. Tap water was made opaque with nontoxic tempera white paint and the water temperature was kept at 23±1° C. A dim light source was placed within the testing room and only distal visual cues were available above each quadrant of the swimming pool to aid in the spatial navigation and location of the submerged platform. The latency to platform, e.g., the time required by the mouse to find and climb onto the platform, was recorded for up to 60 s. Each mouse was allowed to remain on the platform for 20 s and was then moved from the maze to its home cage. […] During the acquisition, probe and reversal, data were recorded using the EthoVision automated tracking system (Noldus Information Technology). The mean latency (in s) of the four trials was calculated for each day of test. The % of time in the platform quadrant was calculated for the probe trial. […] The mean % of allocentric navigation of four trials was calculated for each day.

**Q.** For verteporfin [Visudyne], which “Gd signal gain in hippocampus and cortex” value ([1]; 7 days after Visudyne/photoconversion, Gd 25 mM i.c.m., 16 MRI sequences (~52 min), vs vehicle) is on record?
**A.** significantly lower

**Q.** And the “contrast in Gd signal intensity in the ventricles” value ([1]; Visudyne-treated mice, over ~52 min)?
**A.** higher contrast in signal intensity

**Q.** And the “isotropic diffusion coefficient of Gd in the brain” value ([1]; after meningeal lymphatic ablation with Visudyne, advection-diffusion model in Lymph4D)?
**A.** lower coefficient values

**Q.** And the “Gd signal intensity gain (relative to sequence 1) in the brain cortex” value ([1]; one week after Visudyne/photoconversion, Gd 25 mM i.c.m., vs vehicle/photoconversion)?
**A.** significant decrease

**Q.** And the MWM spatial learning (mice)?
**A.** significant deficits in spatial learning
